Laboratory results published in ChEMBL document CHEMBL5724696, “Autophagy assay results for EUbOPEN Chemogenomics Library” (2024).
“And” between values parts separate entries of the source, which are not always exact repeats. Equal values may be shown once.

Columns and labels:
Assay type in all cases: functional, Homo sapiens
[1] = system: TERT-RPE1; assay: (§1) Here: values are normalized to the negative (DMSO; defined as 0% autophagy induction) and positive (250nM Torin1; mTOR inhibitor; defined as maximal inducer of autophagy = 100%) control compounds and represented as % of autophagy induction. […] The impact of autophagy induction on cells is complex and depends on the affected target. As such, the magnitude of a phenotype may not be equally mirrored in the %-value of autophagy induction and vice versa. The dynamics of the induction may indicate the mode of activation: e.g. activation via phosphorylation or a signaling cascade may occur fast, while activation via transcription factors may take considerably longer. […] Of note, treatment concentrations may be sub-optimal for specific compounds, leading to false negative annotations.; details: Culturing Media DMEM/F12 (1:1), 1 % Penicillin/Streptomycin, 10% Fetal bovin serum Add-On: No, Screening Media Control DMEM/F12 (1:1), Screening Media Samples DMEM/F12 (1:1)
[2] = system: U2OS; assay: as §1; details: Culturing Media DMEM, 1 % Penicillin/Streptomycin, 10% Fetal bovin serum Add-On: No, Screening Media Control DMEM, Screening Media Samples DMEM
[3] = system: U2OS; assay: as §1; details: Culturing Media DMEM, 1 % Penicillin/Streptomycin, 10% Fetal bovin serum Add-On: No, Screening Media Control DMEM, Screening Media Samples DMEM; remark: listed apart in the source
[4] = Compound Concentration 0.5 uM, Timepoint 12 hours, 12 h, 0.5 µM
[5] = Compound Concentration 0.5 uM, Timepoint 24 hours, 24 h, 0.5 µM
[6] = Compound Concentration 0.5 uM, Timepoint 36 hours, 36 h, 0.5 µM
[7] = Compound Concentration 0.5 uM, Timepoint 60 hours, 60 h, 0.5 µM
[8] = Compound Concentration 2 uM, Timepoint 24 hours, 24 h, 2 µM
[9] = Compound Concentration 2 uM, Timepoint 36 hours, 36 h, 2 µM
[10] = Compound Concentration 2 uM, Timepoint 60 hours, 60 h, 2 µM
[11] = Compound Concentration 10 uM, Timepoint 12 hours, 12 h, 10 µM
[12] = Compound Concentration 10 uM, Timepoint 24 hours, 24 h, 10 µM
[13] = Compound Concentration 10 uM, Timepoint 36 hours, 36 h, 10 µM
[14] = Compound Concentration 10 uM, Timepoint 60 hours, 60 h, 10 µM
[15] = Compound Concentration 0.5 uM, Timepoint 12 hours
[16] = Compound Concentration 0.5 uM, Timepoint 24 hours
[17] = Compound Concentration 0.5 uM, Timepoint 36 hours
[18] = Compound Concentration 0.5 uM, Timepoint 60 hours
[19] = Compound Concentration 2 uM, Timepoint 12 hours
[20] = Compound Concentration 2 uM, Timepoint 24 hours
[21] = Compound Concentration 2 uM, Timepoint 36 hours
[22] = Compound Concentration 2 uM, Timepoint 60 hours
[23] = Compound Concentration 10 uM, Timepoint 12 hours
[24] = Compound Concentration 10 uM, Timepoint 24 hours
[25] = Compound Concentration 10 uM, Timepoint 36 hours
[26] = Compound Concentration 10 uM, Timepoint 60 hours

| SMILES | autophagy induction [1, 4] | autophagy induction [1, 5] | autophagy induction [1, 6] | autophagy induction [1, 7] | autophagy induction [1, 8] | autophagy induction [1, 9] | autophagy induction [1, 10] | autophagy induction [1, 11] | autophagy induction [1, 12] | autophagy induction [1, 13] | autophagy induction [1, 14] | autophagy induction [2, 15] | autophagy induction [2, 16] | autophagy induction [2, 17] | autophagy induction [2, 18] | autophagy induction [2, 19] | autophagy induction [2, 20] | autophagy induction [2, 21] | autophagy induction [2, 22] | autophagy induction [2, 23] | other results |
| --- | --- | --- | --- | --- | --- | --- | --- | --- | --- | --- | --- | --- | --- | --- | --- | --- | --- | --- | --- | --- | --- |
| CCCCCCCCCCCCCCCCOC[C@H](COP(=O)([O-])OCC[N+](C)(C)C)OC(C)=O | -0.9527% and 1.704% | -3.436% and -0.1454% | -3.259% and 2.221% | -5.529% and 3.615% | -0.2119% and 13.6511% | -1.573% and 9.518% | -2.541% and 14.6368% | 8.2187% and 7.039% | 4.065% and 6.451% | 4.665% and 7.035% | 6.217% and 11.8263% | 2.963% | 0.1782% | 2280.79% | -1.799% | -5.387% | -3.326% | 2231.79% | -1.895% | -2.708% | autophagy induction [2, 24]: -1.793%; autophagy induction [2, 25]: 678.152%; autophagy induction [2, 26]: 1.655%; autophagy induction [3, 15]: 1.863%; autophagy induction [3, 16]: 3.665%; autophagy induction [3, 17]: -3.033%; autophagy induction [3, 18]: -9.658%; autophagy induction [3, 19]: 2.298%; autophagy induction [3, 20]: -2.882%; autophagy induction [3, 21]: -2.921%; autophagy induction [3, 22]: -2.8%; autophagy induction [3, 23]: 10.6263%; autophagy induction [3, 24]: 0.8651%; autophagy induction [3, 25]: 6.18%; autophagy induction [3, 26]: 5.674% |
| FC(F)(F)c1c(N2CCC(c3ccccc3)CC2)ccn2c(CC3CC3)nnc12 | 0.8285% and 1.833% | -1.6355% and 0.4371% | -2.42% and 3.239% | -6.544% and 5.154% | -0.3973% and 6.29% | -4.125% and 5.099% | -2.871% and 7.601% | 0.02052% and 7.4327% | -1.251% and 7.807% | -2.896% and 10.4333% | -4.9464% and 19.419% | -3.682% | -3.457% | 1345.14% | -2.1724% | -2.443% | -4.21% | -60.9304% | -2.478% | 1.237% | autophagy induction ([1]; Compound Concentration 2 uM, Timepoint 12 hours, 12 h, 2 µM): -0.736% and 6.309%; autophagy induction [2, 24]: -0.8788%; autophagy induction [2, 25]: -59.5065%; autophagy induction [2, 26]: -0.8045%; autophagy induction [3, 15]: 6.212%; autophagy induction [3, 16]: 3.779%; autophagy induction [3, 17]: -3.086%; autophagy induction [3, 18]: -2.905%; autophagy induction [3, 19]: -8.584%; autophagy induction [3, 20]: -5.642%; autophagy induction [3, 21]: -3.294%; autophagy induction [3, 22]: -4.323%; autophagy induction [3, 23]: -9.128%; autophagy induction [3, 24]: -9.508%; autophagy induction [3, 25]: -1.15%; autophagy induction [3, 26]: -1.079% |
